Measured values taken from patent US20230085307A1, “PYRIDAZINONE COMPOUND AND HERBICIDE” (NISSAN CHEMICAL CORPORATION, priority 2019, published 2023).

Key:
green foxtail [1] = assay: Test Example 5: herbicidal effect by foliage application, plastic box (Table 20, symbol G); type: in vivo, green foxtail (Setaria viridis); conditions: foliage application, 320 g/ha
Outline: (§1)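 Post-emergence foliar test in sterilized diluvial soil. Compound applied as water-diluted emulsion at a predetermined rate to 14-day-old plants; evaluation at three weeks.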

Italian ryegrass [2] = assay: Test Example 5: herbicidal effect by foliage application, plastic box (Table 20, symbol K); type: in vivo, Italian ryegrass (Lolium multiflorum); conditions: foliage application, 320 g/ha
Outline: as §1

Japanese bulrush = assay: Test Example 1: herbicidal activity, application before weed generation under submerged conditions (Table 16, symbol B); type: in vivo, Japanese bulrush (Schoenoplectus juncoides)
Outline: (§2)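 Alluvial soil was flooded to 4 cm depth, weed seeds were sown mixed and 2.5-leaf rice seedlings were transplanted. On sowing day, the compound's emulsion, diluted in water to a set dose, was applied to the water surface. Plants grew at 25–30 °C and were scored 0–5 after three weeks.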

wild oat [3] = assay: Test Example 4: herbicidal effect by soil treatment (Table 19, symbol I); type: in vivo, wild oat (Avena fatua)
Outline: (§3)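 Emulsion of test compound, water-diluted to predetermined amount, sprayed on soil after sowing (seed depth ~1.5 cm, sterilized diluvial soil). Greenhouse, 25–30° C. Effect graded at three weeks post-spray.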

redroot pigweed [4] = assay: Test Example 4: herbicidal effect by soil treatment (Table 19, symbol N); type: in vivo, redroot pigweed (Amaranthus retroflexus)
Outline: as §3

lambsquarters [5] = assay: Test Example 4: herbicidal effect by soil treatment (Table 19, symbol O); type: in vivo, lambsquarters (Chenopodium album)
Outline: as §3

false cleavers = assay: Test Example 4: herbicidal effect by soil treatment (Table 19, symbol Q); type: in vivo, false cleavers (Galium spurium)
Outline: as §3

lambsquarters [6] = assay: Test Example 5: herbicidal effect by foliage application, plastic box (Table 20, symbol O); type: in vivo, lambsquarters (Chenopodium album); conditions: foliage application, 320 g/ha
Outline: as §1

barnyard grass [7] = assay: Test Example 5: herbicidal effect by foliage application, plastic box (Table 20, symbol H); type: in vivo, barnyard grass (Echinochloa crus-galli); conditions: foliage application, 320 g/ha
Outline: as §1

wild oat [8] = assay: Test Example 5: herbicidal effect by foliage application, plastic box (Table 20, symbol I); type: in vivo, wild oat (Avena fatua); conditions: foliage application, 320 g/ha
Outline: as §1

Italian ryegrass [9] = assay: Test Example 4: herbicidal effect by soil treatment (Table 19, symbol K); type: in vivo, Italian ryegrass (Lolium multiflorum)
Outline: as §3

blackgrass [10] = assay: Test Example 5: herbicidal effect by foliage application, plastic box (Table 20, symbol J); type: in vivo, blackgrass (Alopecurus myosuroides); conditions: foliage application, 320 g/ha
Outline: as §1

southern crabgrass [11] = assay: Test Example 4: herbicidal effect by soil treatment (Table 19, symbol F); type: in vivo, southern crabgrass (Digitaria ciliaris)
Outline: as §3

Chinese sprangletop = assay: Test Example 3: herbicidal effect by foliage application, Wagner pot (Table 18, symbol D); type: in vivo, chinese sprangletop (Leptochloa chinensis)
Outline: (§4)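 Plants were sown in alluvial soil held under 0.1–0.5 cm standing water and grown 14 days in a greenhouse at 25–30 °C. An emulsifiable formulation, water-diluted to the set dose, was then sprayed onto the foliage, and effects were scored three weeks later using previously defined criteria.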

late watergrass = assay: Test Example 1: herbicidal activity, application before weed generation under submerged conditions (Table 16, symbol A); type: in vivo, late watergrass (Echinochloa oryzicola)
Outline: as §2

southern crabgrass [12] = assay: Test Example 5: herbicidal effect by foliage application, plastic box (Table 20, symbol F); type: in vivo, southern crabgrass (Digitaria ciliaris); conditions: foliage application, 320 g/ha
Outline: as §1

velvetleaf [13] = assay: Test Example 5: herbicidal effect by foliage application, plastic box (Table 20, symbol M); type: in vivo, velvetleaf (Abutilon theophrasti); conditions: foliage application, 320 g/ha
Outline: as §1

barnyard grass [14] = assay: Test Example 3: herbicidal effect by foliage application, Wagner pot (Table 18, symbol H); type: in vivo, barnyard grass (Echinochloa crus-galli)
Outline: as §4

windgrass [15] = assay: Test Example 5: herbicidal effect by foliage application, plastic box (Table 20, symbol L); type: in vivo, windgrass (Apera spica-venti); conditions: foliage application, 320 g/ha
Outline: as §1

windgrass [16] = assay: Test Example 4: herbicidal effect by soil treatment (Table 19, symbol L); type: in vivo, windgrass (Apera spica-venti)
Outline: as §3

blackgrass [17] = assay: Test Example 4: herbicidal effect by soil treatment (Table 19, symbol J); type: in vivo, blackgrass (Alopecurus myosuroides)
Outline: as §3

chickweed = assay: Test Example 5: herbicidal effect by foliage application, plastic box (Table 20, symbol P); type: in vivo, common chickweed (Stellaria media); conditions: foliage application, 320 g/ha, evaluated three weeks after application
Outline: as §1

barnyard grass [18] = assay: Test Example 4: herbicidal effect by soil treatment (Table 19, symbol H); type: in vivo, barnyard grass (Echinochloa crus-galli)
Outline: as §3

green foxtail [19] = assay: Test Example 4: herbicidal effect by soil treatment (Table 19, symbol G); type: in vivo, green foxtail (Setaria viridis)
Outline: as §3

oval-leafed pondweed = assay: Test Example 1: herbicidal activity, application before weed generation under submerged conditions (Table 16, symbol C); type: in vivo, oval-leafed pondweed (Monochoria vaginalis)
Outline: as §2

rice flat sedge = assay: Test Example 3: herbicidal effect by foliage application, Wagner pot (Table 18, symbol E); type: in vivo, rice flat sedge (Cyperus iria)
Outline: as §4

velvetleaf [20] = assay: Test Example 4: herbicidal effect by soil treatment (Table 19, symbol M); type: in vivo, velvetleaf (Abutilon theophrasti)
Outline: as §3

persian speedwell = assay: Test Example 5: herbicidal effect by foliage application, plastic box (Table 20, symbol R); type: in vivo, Persian speedwell (Veronica persica); conditions: foliage application, 320 g/ha
Outline: as §1

redroot pigweed [21] = assay: Test Example 5: herbicidal effect by foliage application, plastic box (Table 20, symbol N); type: in vivo, redroot pigweed (Amaranthus retroflexus); conditions: foliage application, 320 g/ha, evaluated three weeks after application
Outline: as §1

[22] = evaluated three weeks after application
[23] = amount of applied herbicide 320 g/ha

CCCC(=O)Oc1c(C)nn(C)c(=O)c1-c1c(-c2ccc(Cl)c(Cl)c2)sc2ccc(F)cc12 [2-082]
herbicidal effect on G: green foxtail (green foxtail [1]; [22]): 0 (Herbicidal rate of 5% or less (almost no effect)) | herbicidal effect on K: Italian ryegrass (Italian ryegrass [2]; [22]): 0 (Herbicidal rate of 5% or less (almost no effect)) | Herbicidal effect on B: Japanese bulrush (grade 0-5) (Japanese bulrush; 320 g/ha applied herbicide): 3 (Herbicidal rate of 40% or more and less than 70%) | herbicidal effect rating, I: wild oat (wild oat [3]; 320 g/ha): 0 (Herbicidal rate of 5% or less (almost no effect)) | herbicidal effect rating, N: redroot pigweed (redroot pigweed [4]; 320 g/ha): 3 (Herbicidal rate of 40% or more and less than 70%) | herbicidal effect rating, O: lambsquarters (lambsquarters [5]; 320 g/ha): 2 (Herbicidal rate of 20% or more and less than 40%) | herbicidal effect rating, Q: false cleavers (false cleavers; 320 g/ha): 0 (Herbicidal rate of 5% or less (almost no effect)) | herbicidal effect on O: lambsquarters (lambsquarters [6]; [22]): 3 (Herbicidal rate of 40% or more and less than 70%) | herbicidal effect on H: barnyard grass (barnyard grass [7]; [22]): 0 (Herbicidal rate of 5% or less (almost no effect)) | herbicidal effect on I: wild oat (wild oat [8]; [22]): 0 (Herbicidal rate of 5% or less (almost no effect)) | herbicidal effect rating, K: Italian ryegrass (Italian ryegrass [9]; 320 g/ha): 0 (Herbicidal rate of 5% or less (almost no effect)) | herbicidal effect on J: blackgrass (blackgrass [10]; [22]): 0 (Herbicidal rate of 5% or less (almost no effect)) | herbicidal effect rating, F: southern crabgrass (southern crabgrass [11]; 320 g/ha): 1 (Herbicidal rate of 5% or more and less than 20%) | herbicidal effect on D (Chinese sprangletop), rating 0-5 (Chinese sprangletop; 320 g/ha): 2 (Herbicidal rate of 20% or more and less than 40%) | Herbicidal effect on A: late watergrass (grade 0-5) (late watergrass; 320 g/ha applied herbicide): 2 (Herbicidal rate of 20% or more and less than 40%) | herbicidal effect on F: southern crabgrass (southern crabgrass [12]; [22]): 0 (Herbicidal rate of 5% or less (almost no effect)) | herbicidal effect on M: velvetleaf (velvetleaf [13]; [22]): 3 (Herbicidal rate of 40% or more and less than 70%) | herbicidal effect on H (barnyard grass), rating 0-5 (barnyard grass [14]; 320 g/ha): 4 (Herbicidal rate of 70% or more and less than 90%) | herbicidal effect on L: windgrass (windgrass [15]; [22]): 0 (Herbicidal rate of 5% or less (almost no effect)) | herbicidal effect rating, L: windgrass (windgrass [16]; 320 g/ha): 0 (Herbicidal rate of 5% or less (almost no effect)) | herbicidal effect rating, J: blackgrass (blackgrass [17]; 320 g/ha): 0 (Herbicidal rate of 5% or less (almost no effect)) | herbicidal effect on P: chickweed (chickweed): 5 (Herbicidal rate of 90% or more (almost completely withered)) | herbicidal effect rating, H: barnyard grass (barnyard grass [18]; 320 g/ha): 0 (Herbicidal rate of 5% or less (almost no effect)) | herbicidal effect rating, G: green foxtail (green foxtail [19]; 320 g/ha): 0 (Herbicidal rate of 5% or less (almost no effect)) | Herbicidal effect on C: oval-leafed pondweed (grade 0-5) (oval-leafed pondweed; 320 g/ha applied herbicide): 0 (Herbicidal rate of 5% or less (almost no effect)) | herbicidal effect on E (rice flat sedge), rating 0-5 (rice flat sedge; 320 g/ha): 4 (Herbicidal rate of 70% or more and less than 90%) | herbicidal effect rating, M: velvetleaf (velvetleaf [20]; 320 g/ha): 0 (Herbicidal rate of 5% or less (almost no effect)) | herbicidal effect on R: persian speedwell (persian speedwell; [22]): 3 (Herbicidal rate of 40% or more and less than 70%) | herbicidal effect on N: redroot pigweed (redroot pigweed [21]): 3 (Herbicidal rate of 40% or more and less than 70%)

COCc1ccc(-c2oc3ccc(F)cc3c2-c2c(O)c(C)nn(C)c2=O)cc1 [9-043]
herbicidal effect on green foxtail (G) (green foxtail [1]; three weeks after application): 4 (Herbicidal rate of 70% or more and less than 90%) | herbicidal effect on Italian ryegrass (K) (Italian ryegrass [2]; three weeks after application): 5 (Herbicidal rate of 90% or more (almost completely withered)) | Herbicidal effect, B: Japanese bulrush (Japanese bulrush; [23]): 0 (Herbicidal rate of 5% or less (almost no effect)) | I: wild oat, herbicidal effect grade (wild oat [3]; [23]): 0 (Herbicidal rate of 5% or less (almost no effect)) | N: redroot pigweed, herbicidal effect grade (redroot pigweed [4]; [23]): 5 (Herbicidal rate of 90% or more (almost completely withered)) | O: lambsquarters, herbicidal effect grade (lambsquarters [5]; [23]): 3 (Herbicidal rate of 40% or more and less than 70%) | Q: false cleavers, herbicidal effect grade (false cleavers; [23]): 0 (Herbicidal rate of 5% or less (almost no effect)) | herbicidal effect on lambsquarters (O) (lambsquarters [6]; three weeks after application): 4 (Herbicidal rate of 70% or more and less than 90%) | herbicidal effect on barnyard grass (H) (barnyard grass [7]; three weeks after application): 3 (Herbicidal rate of 40% or more and less than 70%) | herbicidal effect on wild oat (I) (wild oat [8]; three weeks after application): 0 (Herbicidal rate of 5% or less (almost no effect)) | K: Italian ryegrass, herbicidal effect grade (Italian ryegrass [9]; [23]): 5 (Herbicidal rate of 90% or more (almost completely withered)) | herbicidal effect on blackgrass (J) (blackgrass [10]; three weeks after application): 4 (Herbicidal rate of 70% or more and less than 90%) | F: southern crabgrass, herbicidal effect grade (southern crabgrass [11]; [23]): 4 (Herbicidal rate of 70% or more and less than 90%) | Herbicidal effect on D (Chinese sprangletop), foliage application (Chinese sprangletop; [23]): 3 (Herbicidal rate of 40% or more and less than 70%) | Herbicidal effect, A: late watergrass (late watergrass; [23]): 3 (Herbicidal rate of 40% or more and less than 70%) | herbicidal effect on southern crabgrass (F) (southern crabgrass [12]; three weeks after application): 3 (Herbicidal rate of 40% or more and less than 70%) | herbicidal effect on velvetleaf (M) (velvetleaf [13]; three weeks after application): 4 (Herbicidal rate of 70% or more and less than 90%) | Herbicidal effect on H (barnyard grass), foliage application (barnyard grass [14]; [23]): 4 (Herbicidal rate of 70% or more and less than 90%) | herbicidal effect on windgrass (L) (windgrass [15]; three weeks after application): 0 (Herbicidal rate of 5% or less (almost no effect)) | L: windgrass, herbicidal effect grade (windgrass [16]; [23]): 0 (Herbicidal rate of 5% or less (almost no effect)) | J: blackgrass, herbicidal effect grade (blackgrass [17]; [23]): 4 (Herbicidal rate of 70% or more and less than 90%) | H: barnyard grass, herbicidal effect grade (barnyard grass [18]; [23]): 4 (Herbicidal rate of 70% or more and less than 90%) | G: green foxtail, herbicidal effect grade (green foxtail [19]; [23]): 5 (Herbicidal rate of 90% or more (almost completely withered)) | Herbicidal effect, C: oval-leafed pondweed (oval-leafed pondweed; [23]): 2 (Herbicidal rate of 20% or more and less than 40%) | Herbicidal effect on E (rice flat sedge), foliage application (rice flat sedge; [23]): 5 (Herbicidal rate of 90% or more (almost completely withered)) | M: velvetleaf, herbicidal effect grade (velvetleaf [20]; [23]): 4 (Herbicidal rate of 70% or more and less than 90%) | herbicidal effect on persian speedwell (R) (persian speedwell; three weeks after application): 5 (Herbicidal rate of 90% or more (almost completely withered))
